Experimental data reported in patent publication US9023817B2, “Use of albiflorin for anti-depression” (priority 2009, dated 2015).
Structures can show the parent of a compound that is named as a salt. Marks after values point to notes of the source that are not given here.

Tests used:
ICR mice [1] = experiment: Forced swimming test in mice; type: in vivo; conditions: 1 h after administration, last 4 min; for Immobility Time (s): listed as paeoniflorin
Method: Each group was administered by gavage at a dose of 0.2 ml/10 g weight, for two days, deionized water was administered to vehicle group.
In the second day, 1 h after the administration, the mice were placed separately into a water cylinder with 20 cm of height, 18 cm of diameter, 10 cm of depth, 23±2° C. of water temperature; observing each for 6 min, after 2 min of adaption, the immobility time over the last 4 min was recorded.
The data was expressed as x±s, analyzed by SPSS 13.0 statistical software by means of One-Way ANOVA test, the homogeneity of variance was tested by LSD and SNK test.

ICR mice [2] = experiment: Tail suspension test in mice, administration by gavage; type: in vivo; conditions: 1 h after administration, over 4 min; for Immobility Time (s): listed as paeoniflorin
Method: In the second day, 1 h after the administration, the tail of mouse (2 cm away from the tip of the tail) was fixed to the connection line of 100 g tension transducer by adhesive plaster, and the mouse was hung upside down, with the head about 15 cm away from the experimental bench, two animals isolated from each other by a cardboard were simultaneously tested for each time. The transducer was connected to the Medlab bio-signals acquisition and processing system, after 2 min of adaption, the result over 4 min was recorded, and the immobility situation was converted into the time(s). The experimental data were expressed as X±SD, and the analysis of variance for the experimental results was carried out by SPSS 11.5 statistical software (purchased from SPSS Inc., USA).

ICR mice [3] = experiment: Reserpine-induced hypothermia test in mice; type: in vivo; conditions: 3 mg/kg gavage 7 days, reserpine 2 mg/kg i.p., rectal temperature 4 hours after reserpine
Method: 50 mice were randomly divided into five groups (n=10 for each group): high-dose group (14 mg*kg^−1), medium-dose group (7 mg*kg^−1), low-dose group (3.5 mg*kg^−1) of Albiflorin; control group of paroxetine (3 mg/kg); model group of physiological saline. The gavage was carried out for 7 days. Rectal temperatures of mice were measured at 1 hour after the administration on the 8th day, then reserpine was administered by intraperitoneal injection at a dose of 2 mg/kg, rectal temperatures of mice were measured again at 4 hours after the injection of reserpine. The depth into anus of thermometer and the time for each temperature measurement of mice was coincident. The experimental data was expressed as X±SD, and the analysis of variance for the experimental results was carried out by SPSS 11.5 statistical software (purchased from SPSS Inc., USA), the experimental results were shown in Table 4.

[4] = test system: rats with chronic stress induced depression model; experiment: Open-field test, chronic stress induced depression; type: in vivo, SD rats; conditions: 3 mg/kg/day gavage for 21 days, 3 minutes, Hydrochloride
Method: (§1) The gavage was carried out along with the model establishment, once a day, for 21 days. […] Referring to the methods in the literature (Xu Jing, Li Xiaoqiu, Establishment and evaluation of the model of chronic stress induced depression, Chinese Journal of Behavioral Medical Science, 2003, 12(1): 14 16), the model was established (i.e., establishing animal model of anti-depression by means of CUMS): the foot electric shock (voltage: […] (5 minutes), drying at 45° C. (5 minutes), tail nipping (1 min), wet feeding (wet mat), reversed day and night (24 hours), fasting (24 hours), water deprivation (24 hours) were randomly scheduled within 21 days, one kind of stimulations was given for each day, except for the animals of vehicle group, the others were separately caged with free diet, at the room temperature of (24±1)° C., with the relative humidity of (60±10)%. The open-field device was of 40 cm in height, 80 cm in both length and width, without cap, the inner walls and the bottom of the device are black, and the bottom was divided into 25 squares with equal area. The numbers of squares that the animals pass through were designated as the score of horizontal movement, and the numbers of standing (with the forelegs above 1 cm away from the ground) were designated as the score of vertical movement. Each animal was measured for one time, 3 minutes for each measurement. All parameters to be tested were expressed as Mean±SD (X±s), and tested by means of analysis of variance (ANOVA) in SPSS 12.0 software (purchased from SPSS Inc., USA), p<0.05 means that there was a significant difference.

[5] = test system: rats with chronic stress induced depression model; experiment: Consumption of 1% aqueous sucrose, chronic stress induced depression; type: in vivo, SD rats; conditions: 3 mg/kg/day gavage, 1% aqueous sucrose for 1 hour
Method: The gavage was carried out along with the model establishment, once a day, for 21 days. […] Referring to the methods in the literature (Xu Jing, Li Xiaoqiu, Establishment and evaluation of the model of chronic stress induced depression, Chinese Journal of Behavioral Medical Science, 2003, 12(1): 14 16), the model was established (i.e., establishing animal model of anti-depression by means of CUMS): the foot electric shock (voltage: […] (5 minutes), drying at 45° C. […] All parameters to be tested were expressed as Mean±SD (X±s), and tested by means of analysis of variance (ANOVA) in SPSS 12.0 software (purchased from SPSS Inc., USA), p<0.05 means that there was a significant difference.

[6] = test system: rats with chronic stress induced depression model; experiment: Body weights of rats with chronic stress induced depression (CUMS); type: in vivo, SD rats; conditions: 3 mg/kg/day gavage
Method: as §1, with “(60±10)%.” for “(60±10)%. The open-field device was of 40 cm in height, 80 cm in both length and width, without cap, the inner walls and the bottom of the device are black, and the bottom was divided into 25 squares with equal area. The numbers of squares that the animals pass through were designated as the score of horizontal movement, and the numbers of standing (with the forelegs above 1 cm away from the ground) were designated as the score of vertical movement. Each animal was measured for one time, 3 minutes for each measurement.”

[7] = test system: rats with chronic stress induced depression model; experiment: Jump stair test, chronic stress induced depression; type: in vivo, SD rats; conditions: 3 mg/kg/day gavage for 21 days, 5 minutes, Hydrochloride; for Error times in testing period: after 24 hours
Method: The gavage was carried out along with the model establishment, once a day, for 21 days. […] Referring to the methods in the literature (Xu Jing, Li Xiaoqiu, Establishment and evaluation of the model of chronic stress induced depression, Chinese Journal of Behavioral Medical Science, 2003, 12(1): 14 16), the model was established (i.e., establishing animal model of anti-depression by means of CUMS): the foot electric shock (voltage: […] (5 minutes), drying at 45° C. (5 minutes), tail nipping (1 min), wet feeding (wet mat), reversed day and night (24 hours), fasting (24 hours), water deprivation (24 hours) were randomly scheduled within 21 days, one kind of stimulations was given for each day, except for the animals of vehicle group, the others were separately caged with free diet, at the room temperature of (24±1)° C., with the relative humidity of (60±10)%. […] A wooden platform (height: 5 cm, diameter: 8 cm) was placed into the box at the left back corner. Animals were placed into the response box to adapt to the environment for 3 minutes, and then the box was immediately electrified with […] alternating current, the normal response of the animal which suffered from electric shock was to jump onto the platform in order to avoid such harmful stimulation. Most animals were likely to jump down to the copper railings again or for several times, and then quickly jump back to the platform after suffering from the electric shock, being trained like this for 5 minutes, the times that the rats suffered from the electric shock were designated as error times. The test was carried out again after 24 hours, rats were placed on the platform and the box was charged, timing and recording the error times for 5 minutes. All parameters to be tested were expressed as Mean±SD (X±s), and tested by means of analysis of variance (ANOVA) in SPSS 12.0 software (purchased from SPSS Inc., USA), p<0.05 means that there was a significant difference.

ICR mice [8] = experiment: Tail suspension test in mice, extract of Radix paeoniae alba; type: in vivo; conditions: 3.5 mg/kg/d gavage for 2 days; 1 hour after last administration; 4 min; Hydrochloride
Method: Each group was administered at a dosage of 0.2 ml/10 g body weight. The vehicle group was administered with deionized water by gavage once a day, for 2 days. The test was carried out at 1 hour after the last administration. The tail of mouse (2 cm away from the tip of the tail) was fixed to the connection line of 100 g tension transducer with adhesive plaster, and the mouse was hung upside down, with the head about 15 cm away from the experimental bench, the transducer was connected to the Medlab bio-signals acquisition and processing system, after 2 min of adaption, the immobility time(s) for 4 min was recorded.
The experimental data was expressed as X±s, analyzed by SPSS 13.0 statistical software by means of One-Way ANOVA test.

[9] = 3.5 mg/kg/d by gavage for two days
[10] = 7 mg/kg/d by gavage for two days
[11] = 14 mg/kg/d by gavage for two days
[12] = Day 14, listed as Positice control, Hydrochloride
[13] = Day 14, listed as Prozac, Hydrochloride
[14] = Day 21, listed as Positice control, Hydrochloride
[15] = Day 21, listed as Prozac, Hydrochloride

## C[C@@]12C[C@@]3(O)O[C@@H](O1)[C@]1(COC(=O)c4ccccc4)[C@H]3C[C@@]12O[C@@H]1O[C@H](CO)[C@@H](O)[C@H](O)[C@H]1O [Paeoniflorin]
ICR mice [1]; [9]
  Immobility Time: 58.60 ± 32.320 s
  Immobility Time (s): not significantly different from the model group
ICR mice [1]; [10]
  Immobility Time: 43.94 ± 38.341 s
  Immobility Time (s): not significantly different from the model group
ICR mice [1]; [11]
  Immobility Time: 50.39 ± 31.257 s
  Immobility Time (s): not significantly different from the model group
ICR mice [2]; [9]
  Immobility Time: 85.62 ± 31.225 s
  Immobility Time (s): not significantly different from the model group
ICR mice [2]; [10]
  Immobility Time: 76.83 ± 36.452 s
  Immobility Time (s): not significantly different from the model group
ICR mice [2]; [11]
  Immobility Time: 81.32 ± 32.756 s
  Immobility Time (s): not significantly different from the model group

## Fc1ccc([C@@H]2CCNC[C@H]2COc2ccc3c(c2)OCO3)cc1 [Paroxetine]
ICR mice [3]
  Hypothermia value (° C.): 2.38 ± 0.69** ° C.
ICR mice [3]; listed as paroxetine
  Hypothermia value (° C.): significantly recede

## CNCCC(Oc1ccc(C(F)(F)F)cc1)c1ccccc1 (stereo not drawn) [Positive control, Fluoxetine Hydrochloride]
[4]; listed as Positice control
  Score of horizontal movement: 28.09 ± 18.55
  Score of vertical movement: 7.00 ± 3.90
[4]; listed as Prozac
  Score of horizontal movement: significantly increased
  Score of vertical movement: significantly increased
[5]; Day 0
  comsumption of aqeous sucrose: 12.67 ± 5.53 mL
[5]; Day 7
  comsumption of aqeous sucrose: 10.00 ± 4.24 mL
[5]; [12]
  comsumption of aqeous sucrose: 15.00 ± 2.22 mL
[5]; [13]
  comsumption of aqeous sucrose: significantly increased
[5]; [14]
  comsumption of aqeous sucrose: 14.91 ± 2.68 mL
[5]; [15]
  comsumption of aqeous sucrose: significantly increased
[6]; Day 0
  body weights: 257.19 ± 9.90 g
[6]; Day 7
  body weights: 265.90 ± 13.94 g
[6]; [12]
  body weights: 280.64 ± 12.32 g
[6]; [13]
  body weights: significantly increased
[6]; [14]
  body weights: 291.00 ± 11.31 g
[6]; [15]
  body weights: significantly increased
[7]
  Error times in training period: 2.09 ± 1.22
  Error times in testing period: 0.72 ± 1.19
[7]; listed as Prozac
  Error times in training period: significantly reduced
  Error times in testing period: significantly reduced
ICR mice [8]
  Immobility Time: significantly reduced
ICR mice [2]; [9]
  Immobility Time: 66.21 ± 33.253 s
